Measurements: patent US20020002294A1, “Estrogenic compounds as antiangiogenic agents” (priority 1997, published 2002)

Tests used:
Melanoma cell lines = assay: Human Tumor Cell Panel Assay in vitro, melanoma panel; assay type: cell-based; parameters: key: Most sensitive cell panes are marked with ✓
Source text: (§1) The tubulin activities, breast cancer cell line activities, and the cell panels most sensitive to selected analogs are shown in Tables 3 and 4.

[1] = tested on: MDA-MB-435 estrogen receptor-negative human breast carcinoma cells; assay: In Vivo Tumor Growth Inhibition; parameters: species or system SCID mice; details: 29 days at 75 mg/kg p.o.
Method: To determine the antitumor activity of 2-ME and derivatives, SCID mice were s.c. inoculated with 10^6 MDA-MB-435 estrogen receptor-negative human breast carcinoma cells. Treatment was initiated on day 12 when tumor volumes reached 75-100 mm3 in volume. Drugs were suspended in 0.5 g/100 ml of carboxymethylcellulose with sterile glass beads, vortexed for 5 minutes, and administered p.o. in a volume of 0.1 ml. Control mice received 0.1 ml of carboxymethylcellulose p.o. Serial caliper measurements of perpendicular diameters were used to calculate tumor volume using the following: (shortest diameter)^2×(longest diameter)×0.52. T/C was calculated as the volume of treated tumors over the volume of control tumors. A smaller number indicates a greater inhibition of tumor growth.

[2] = tested on: 8 human breast cancer cell lines; assay: human tumor cell panel assay in vitro, breast panel; assay type: cell-based; parameters: key to Most Sensitive Cell Lines in Human Tumor Cell Panel Assay: Breast: Most sensitive cell panes are marked with ✓
Source text: as §1

[3] = tested on: Ovarian cell lines (especially OVCAR-3); assay: Human Tumor Cell Panel Assay in vitro, ovarian panel; assay type: cell-based; parameters: key: Most sensitive cell panes are marked with ✓
Source text: as §1

tubulin [4] = assay: inhibition of tubulin polymerization in vitro (turbidity at 350 nm); assay type: biochemical
Method: Anti-mitotic activity can be evaluated by testing the ability of an estradiol derivative to inhibit tubulin polymerization and microtubule assembly in vitro. Microtubule assembly is followed in a Gilford recording spectrophotometer (model 250 or 2400S) equipped with electronic temperature controllers. A reaction mixture (all concentrations refer to a final reaction volume of […]) contains 1.0 M monosodium glutamate (ph 6.6), 1. omg/ml (10 μM) tubulin, 1.0 mM MgCl2, 4% (v/v) dimethylsulfoxide and 20-75μM of a composition to be tested. The 0.24 ml reaction mixtures are incubated for 15 min. at 37° C. and then chilled on ice. After addition of 10p1 2.5mM GTP, the reaction mixture is transferred to a cuvette at 0° C., and a baseline established. At time zero, the temperature controller of the spectrophotometer is set at 37° C. Microtubule assembly is evaluated by increased turbity at 350 nm.
A. Each reaction mixture (all concentrations refer to the final reaction volume of 0.25 ml) contained 1.0 M monosodium glutamate (pH 6.6), 1.0 mg/ml (10 μM) tubulin, 1.0 mM MgCl2, 4% (v/v) dimethylsulfoxide, and either 0 (curve 1), 20μM (curve 2), 40 μM (curve 3), or 75 μM (curve 4) 2-methoxyestradiol. The 0.24 ml reaction mixtures were incubated for 15 min. at 37° C and chilled on ice. After addition of 10 μl of 2.5 mM GTP the reaction mixtures were transferred to cuvettes held at 0° C., and baselines were established. At time zero the temperature controller was set at 37° C. At the times indicated by the vertical dashed lines the temperature controller was set at the indicated temperatures.
B. Each reaction mixture contained 0.8 M monosodium glutamate (pH 6.6), 1.2 mg/ml (12 μM) tubulin, 4% (v/v) dimethylsulfoxide, and either 0 (curve 1), 1.0 FM (curve 2), 2.0 ,M (curve 3), 3.0 μM (curve 4), or 4.0 μM (curve 5) 2-methoxyestradiol. The 0.24 ml reaction mixtures were incubated for 15 min. at 26° C. and chilled on ice. After addition of 10μl of 10 mM GTP the reaction mixtures were transferred to cuvettes held at 0° C., and baselines were established. At time zero the temperature controller was set at 26° C. At the time indicated by vertical dashed line the temperature controller was set at 0° C.
The method is given in Example 1.
S.D., standard deviation.

[5] = tested on: new blood vessel cells (angiogenesis); assay: chick embryo chorioallantoic membrane (CAM) assay; assay type: in vivo; details: 100 mg disk, after 48 hours
Method: A suitable assay is the chick embryo chorioallantoic membrane (CAM) assay described by Crum et al. Science 230:1375 (1985). See also, U.S. Pat. No. 5,001,116, hereby incorporated by reference, which describes the CAM assay. Briefly, fertilized chick embryos are removed from their shell on day 3 or 4, and a methylcellulose disc containing the drug is implanted on the chorioallantoic membrane. The embryos are examined 48 hours later and, if a clear avascular zone appears around the methylcellulose disc, the diameter of that zone is measured.

[6] = target: T1, rat uterine cytosolic estrogen receptor (Rattus norvegicus, UniProt P06211); assay: Relative Binding Affinity to estrogen receptor; details: at 0°; 3H-Estradiol=100
T1 construct: from tissue; host or cells: rat uterine cytosol (per the result head)
T1 sequence (P06211 1-600): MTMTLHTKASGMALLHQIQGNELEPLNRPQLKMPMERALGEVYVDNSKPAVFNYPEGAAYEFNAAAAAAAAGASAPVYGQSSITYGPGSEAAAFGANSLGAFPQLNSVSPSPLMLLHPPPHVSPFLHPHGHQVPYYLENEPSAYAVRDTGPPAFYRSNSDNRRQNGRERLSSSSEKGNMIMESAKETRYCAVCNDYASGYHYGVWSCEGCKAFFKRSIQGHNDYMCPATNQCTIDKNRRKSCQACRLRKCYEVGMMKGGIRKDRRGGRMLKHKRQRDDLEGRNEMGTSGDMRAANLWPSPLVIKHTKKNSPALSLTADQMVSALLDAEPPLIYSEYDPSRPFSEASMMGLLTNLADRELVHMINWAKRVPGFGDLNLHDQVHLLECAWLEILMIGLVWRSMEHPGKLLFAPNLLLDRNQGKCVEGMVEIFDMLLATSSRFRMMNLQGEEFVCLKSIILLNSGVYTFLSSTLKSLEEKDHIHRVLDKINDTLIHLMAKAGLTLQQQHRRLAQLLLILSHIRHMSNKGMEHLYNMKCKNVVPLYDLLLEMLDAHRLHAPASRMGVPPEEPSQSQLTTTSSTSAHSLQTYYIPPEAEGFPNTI
Source text: as §1

CNS cell lines = assay: Human Tumor Cell Panel Assay in vitro, CNS panel; assay type: cell-based; parameters: key: Most sensitive cell panes are marked with ✓
Source text: as §1

tubulin [7] = assay: inhibition of [3H]colchicine binding to tubulin; details: 1.0 μM tubulin, 10 min at 37° C.
Method: Incubation was for 10 min. at 37° C.
Incubation was for 10 mi. at 37° C. Average values obtained in three independent experiments are presented in the table, except for 2-methoxyestrone, which was only examined twice. S.D., standard deviation.

tubulin [8] = assay: tubulin activities of 2-ME analogs (Table 3); assay type: biochemical

Q: Which results are given for COc1cc2c(cc1O)CCC1C2CCC2(C)C(O)CCC12 (stereo not shown) [NSC 659853, 2-Methoxyestradiol]?
A: Most Sensitive Cell Lines in Human Tumor Cell Panel Assay: Melanoma (Melanoma cell lines): ✓; T/C (volume of treated tumors over volume of control tumors) [1]: 0.40; Most Sensitive Cell Lines in Human Tumor Cell Panel Assay: Breast ([2]; 8 cell lines, only MCF-7 and T-47D express estrogen and progesterone receptors): ✓; IC50 ([2]; Homo sapiens, cell panel assay in vitro, two values per cell separated by /, read-out: Tumor Panel: Average log IC50(Molar) against 8 human breast cancer cell lines (converted)): 234 nM; Most Sensitive Cell Lines in Human Tumor Cell Panel Assay: Ovarian [3]: ✓; inhibition of tubulin polymerization (FIG. 1), in words (tubulin [4]; 20-75 μM (A) or 1.0-4.0 μM (B) 2-methoxyestradiol): inhibition of tubulin polymerization; IC50 (tubulin [4]; read-out: IC50 (concentration required to inhibit tubulin polymerization by 50%), mean ± S.D., method of Example 1): 1900 ± 200 nM; inhibition of cell mitosis and growth of new blood vessels in CAM assay [5]: found to inhibit cell mitosis and the growth of new blood vessels; RBA, Relative Binding Affinity to rat uterine cytosolic estrogen receptor [6]: 0.245; Most Sensitive Cell Lines in Human Tumor Cell Panel Assay: CNS (CNS cell lines): ✓; inhibition of colchicine binding to tubulin (FIG. 2), in words (tubulin [7]; 5 μM [3H]colchicine): inhibits colchicine binding to tubulin; Percentage Inhibition of colchicine binding to tubulin (tubulin [7]; 100 μM inhibitor, 2 μM [3H]colchicine, ± S.D.): 82 ± 2%; IC50 (tubulin [8]): 3600 ± 400 nM
